Experimental data reported in patent US11124818B2 (priority 2017, dated 2021).
pIC50: −log10 of the molar value. Starred links: 1 amine or outer side, 2 acyl side, 3 side chain; linkers in the order of their positions; H or OH if unused. Positions of bridges follow the written chain, without caps; N, C: chain ends. Non-standard residues stand in square brackets, D forms with d. Residues, ends and D or L forms follow the SMILES beside them. *: point of attachment. Adda = CO[C@@H](Cc1ccccc1)[C@@H](C)/C=C(C)/C=C/[C@H](N[*:1])[C@H](C)C(=O)[*:2]; dAsp(3S-Me) = C[C@H](C(=O)[*:3])[C@@H](N[*:1])C(=O)[*:2]; Dolaproine = CO[C@@H]([C@@H]1CCCN1)[C@@H](C)C(=O)O; Dil = CC[C@H](C)[C@H](NC)[C@@H](CC(=O)O)OC; d(γGlu) = O=C(O)[C@@H](CCC(=O)[*:2])N[*:1]; X2 = C[C@@H](N*)[C@@H](O)c1ccccc1; NMeV = CN[C@H](C(=O)O)C(C)C; NMeDha = C=C(NC)C(=O)O

Tests used:
[1] = test system: OATP1B3-expressing HeLa and RKO cells; settings: cited from earlier work
[2] = test system: OATP1B1-expressing HeLa and RKO cells; format: cell-based
[3] = test system: type 1 protein phosphatases; settings: cited from earlier work
[4] = test system: OATP1B1-expressing HeLa and RKO cells; settings: cited from earlier work
human tumor cell lines = settings: cited from earlier work

| Compound | pIC50 [1] | Ratio 1B1 to 1B3 [2] | pIC50 [3] | pIC50 [4] | cytotoxic potency (human tumor cell lines) [nM] |
| --- | --- | --- | --- | --- | --- |
| C=C1C(=O)N[C@H](C)C(=O)N[C@@H](CC(C)C)C(=O)N[C@@H](C(=O)O)[C@H](C)C(=O)N[C@@H](CCCNC(=N)N)C(=O)N[C@@H](/C=C/C(C)=C/[C@H](C)[C@H](Cc2ccccc2)OC)[C@H](C)C(=O)N[C@@H](C(=O)O)CCC(=O)N1C [LR, microcystin-LR] (R[Adda][d(γGlu)][NMeDha][dA]L[dAsp(3S-Me)]-OH; lactam N-7) | 8.29 | 0.2 | 10.52 | 9.00 | – |
| CC[C@H](C)[C@@H]([C@@H](CC(=O)N1CCC[C@H]1[C@H](OC)[C@@H](C)C(=O)N[C@H](C)[C@@H](O)c1ccccc1)OC)N(C)C(=O)[C@@H](NC(=O)[C@@H](NC)C(C)C)C(C)C [Monomethyl auristatin E] (H-[NMeV]V[Dil][Dolaproine]-X2) | – | – | – | – | 3.9 to 10.3 |
| C/C=C1/C(=O)N[C@@H](C(=O)O)[C@H](C)C(=O)N[C@@H](CCCNC(=N)N)C(=O)N[C@@H](/C=C/C(C)=C/[C@H](C)[C@H](Cc2ccccc2)OC)[C@H](C)C(=O)N[C@@H](C(=O)O)CCC(=O)N1C [NOD, Nodularin] | < 7.00 | <0.1 | – | 8.08 | – |
